From patent publication US20220125913A1, “[…] PEPTIDES, AMINO-ACID SEQUENCES, AND COMPOSITIONS USEFUL FOR SARS-CoV-2 DETECTION AND COVID-19 PREVENTION” (priority 2020, published 2022)

system: SARS-CoV-2 circulation lineages in Colombia (B.1, B.1.111, B.1.111+E48K); settings: in vivo, sc

Sequence	sera neutralizing antibodies
CGVLSFELLHAPATVSGPKKSTNGC [PHE-14]	detected
CGKDQVILLNKHIDAYKTFPPTGC [PHE-30]	detected
CGVTLAILTALRLSAYSSNIVGC [PHE-20]	detected
